Measurements as given in publication PMC3937211, “Serine Carboxypeptidase SCPEP1 and Cathepsin A Play Complementary Roles in Regulation of Vasoconstriction via Inactivation of Endothelin-1” (PLoS Genetics, 2014).
No end group written: not given here.

How the values were obtained:
mesenteric arteries = experiment: Vessel reactivity ex vivo; set-up: species or system mouse; conditions: isolated mesenteric arteries; WT, Scpep1^−/−, CathA^S190A, DD; drugs added extraluminally
Description: Vessel reactivity ex vivo was analyzed as described, [40]. Briefly, male mice were sacrificed at five months and their mesenteric arteries were isolated and mounted onto glass capillaries in an artereograph chamber filled with cold oxygenated Krebs solution (118.6 mM NaCl, 4.7 mM KCl, 1.2 mM KH2PO4, 1.2 mM MgSO4, 25.1 mM NaHCO3, 26 µM EDTA, 0.18% glucose, 2.5 mM CaCl2). The arteries were constantly perfused intraluminally with Krebs solution at 30 mmHg. After 45 minutes of equilibration vascular reactivity was measured in response to Norepinephrine (Sigma A-0937, 10^−9–10^−5 M), Acetylcholine (Sigma A-6625, 10^−9–10^−4 M), Sodium Nitroprusside (Calbiochem 56538, 10^−9–10^−4 M), Endothelin-1 (American Peptide Company 88-1-10, 10^−11–10^−8 M) and AI, (American Peptide Company 12-1-10, 10^−8–10^−4 M). Drugs were added extraluminally with a 30 min washout period in between each drug, during which the arteries were able to re-equilibrate to a baseline. To test vasodilatation arteries were pre-contracted with NE to 70% of their equilibration diameter. At least 3 concentration response curves were conducted for each vessel and at least 6 animals were studied for each genotype.

rats = conditions: induced by monocrotaline in rats; ref [33]; cited from earlier work
Source text: The anti-hypertensive effect of retinoic acid tre ...

[1] = system: MLC-2 phosphorylation in AVSMC (ETR-A, ETR-B); experiment: Myosin light chain 2 phosphorylation by Western blot; type: cell-based, mouse; conditions: WT AVSMC, 30 min pre-treatment with 2 µM antagonist, then 5 min 100 nM ET-1, 3 independent experiments
Source text: To verify at the molecular level if AVSMC from CathA^S190A/Scpep1^−/− mice have increased reactivity to ET-1, we studied intracellular signalling events in these cells in response to ET-1. ET-1 interacts with G-protein-associated endothelin type A (ETR-A) and type B (ETR-B) receptors on the surface of AVSMC. Activation of the receptors induces phospholipase C and increases the intracellular Ca^2+ level leading to activation of myosin light chain kinase that phosphorylates myosin light chain (MLC) [21]–[24]. This causes contraction of myosin filaments and shrinkage of the cells. We therefore, compared the level of MLC phosphorylation in AVSMC before or after treatment with ET-1 for the 4 strains of mice. AVSMC cultured overnight in serum-free medium were treated with or without 100 nM ET-1, harvested and analyzed by Western blot using antibodies against MLC-2 phosphorylated at Thr^18 and Ser^19 residues or against total MLC protein.
Figure 5 Cultured AVSMC from mice with combined CathA/Scpep1 deficiency show increased reactivity to ET-1. […] Total protein extracts were analyzed by Western blotting using antibodies specific for phosphorylated (pThr^18/Ser^19-MLC) and total MLC-2 protein. […] Total protein extracts were analyzed by Western blotting using antibodies specific for phosphorylated and total MLC-2 protein. […]

[2] = product of ET-1 cleavage by CathA in vitro; ref [13], [14]; cited from earlier work
Source text: The bioavailability and potency of AII and ET-1 can be regulated through many factors such as alteration of receptor density and affinity, up- and down-regulation of peptide synthesis or release, enzymatic activation (ACE and ACE2 for AII, ECE and MMP-2 for ET-1 [8]), or degradation (neutral endopeptidase NEP for ET-1 [9]–[11]). Previously we have shown that circulating ET-1 is inactivated by lysosomal carboxypeptidase, cathepsin A (CathA) widely distributed in mammalian tissues (reviewed in [12]). The majority of CathA in the cell is found in the lysosome but significant pool of the e ...

Compound	differences in vessel reactivity between the four groups of mice (mesenteric arteries)	also measured
CC(=O)OCC[N+](C)(C)C [ACh, acetylcholine]	no differences	
NC[C@H](O)c1ccc(O)c(O)c1 [NE, norepinephrine]	no differences	
CC1=C(/C=C/C(C)=C/C=C/C(C)=C/C(=O)O)C(C)(C)CCC1 [all-trans retinoic acid]		effect on pulmonary hypertension (rats): inhibit pulmonary hypertension
BQ788		effect on ET-1-induced MLC-2 phosphorylation [1]: blocked
angiotensin I (DRVYIHPFHL; Angiotensin-1; UniProt P01019 25-34, looked up) [AI, precursor of vasoconstrictive peptide AII; American Peptide Company 12-1-10]	no differences	
des-Trp21-endothelin-1 (CSCSSLMDKECVYFCHLDII; ends and bridges not checked; cysteine pairing not given here; UniProt P05305 53-72, looked up, fragment)		biological activity [2]: biologically inactive
